Reference: article PMC4708007 (Bioscience Reports, 2015)

Target: T1, FtRelA (Francisella tularensis, UniProt Q5NEV0)
T1 construct: gene relA
Experiment: biochemical

T1 sequence (Q5NEV0 1-647 limits assumed): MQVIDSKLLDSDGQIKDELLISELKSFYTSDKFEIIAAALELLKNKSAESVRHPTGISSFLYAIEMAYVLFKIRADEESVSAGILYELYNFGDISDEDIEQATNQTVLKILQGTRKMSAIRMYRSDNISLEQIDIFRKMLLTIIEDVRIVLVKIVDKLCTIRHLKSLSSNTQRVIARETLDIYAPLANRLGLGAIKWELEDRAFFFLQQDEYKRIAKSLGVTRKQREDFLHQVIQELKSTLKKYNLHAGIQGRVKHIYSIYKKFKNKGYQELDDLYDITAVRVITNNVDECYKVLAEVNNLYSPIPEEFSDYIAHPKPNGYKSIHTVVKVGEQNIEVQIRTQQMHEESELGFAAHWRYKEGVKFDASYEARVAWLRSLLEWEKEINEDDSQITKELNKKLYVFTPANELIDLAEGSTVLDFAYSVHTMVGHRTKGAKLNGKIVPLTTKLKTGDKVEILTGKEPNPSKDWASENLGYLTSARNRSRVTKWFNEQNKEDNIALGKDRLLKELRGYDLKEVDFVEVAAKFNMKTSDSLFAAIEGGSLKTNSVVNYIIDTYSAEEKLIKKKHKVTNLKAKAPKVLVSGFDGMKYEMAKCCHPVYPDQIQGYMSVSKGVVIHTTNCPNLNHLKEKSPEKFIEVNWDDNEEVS

Nc1nc2c(ncn2[C@@H]2O[C@H](COP(=O)(O)OP(=O)(O)O)[C@@H](OP(=O)(O)OP(=O)(O)O)[C@H]2O)c(=O)[nH]1 [ppGpp]
EC50: 60 ± 1.9 µM
